A short description of this series: Mechanical stability test (grinding and pelleting). It counts as physicochemical. Here is the method: The mechanical stability of crystalline forms I and III were investigated by grinding and pelleting. Grinding test method: the sample to be measured was put in a mortar and grinded for 2 minutes and 5 minutes respectively, then XRPD was test, and the changes of crystalline form and crystallinity were observed. Pelleting test method: the sample was placed in the die of tablet press, kept at 40 MPa for one minute, and then the crystalline form taken out to test XRPD.

Molecules are shown by their SMILES.

Consider `COC(=O)N1CCO[C@@H](Cc2c(-c3c(F)cc(S(N)(=O)=O)cc3F)nc3cc(Cl)ccn23)C1` [Crystalline form III, methyl (S)-2-((7-chloro-2-(2,6-difluoro-4-sulfamoylphenyl)imidazo[1,2-a]pyridin-3-yl)methyl)morpholine-4-carboxylate], for which, under “40 MPa, 1 min”, the crystallinity after pelleting entry is on record as “decreases obviously”. Moreover, the “crystalline form and crystallinity after grinding” value (grinding 2 min and 5 min) is “no obvious change in crystalline form and crystallinity”.
